Where two headings read alike, the source gives them in different places.
Tests used:
[1] = test system: SK-MES-1 human non-small cell lung carcinoma; assay: MTT cell growth inhibition, SK-MES-1; type: cell-based; settings: 5-10 days incubation
Procedure: (§1) Elsamitrucin and Elsamitrucin tosylate were tested in vitro using: B16F10 (murine […]), HCT 116 (human colon), HT29 (human colon) and SK-MES-1 (human non-small cell lung carcinoma ). Cell growth inhibition was evaluated in 96-well micro-culture plates with a semi-automated MTT (3-(4,5-dimethylthiazol-2-yl)-2,5-diphenyltetrazolium bromide) assay.
(§2) SK-MES-1 human non-small cell lung carcinoma, B16F10 murine melanoma cells, HCT 116 and HT29 human colon carcinomas (collectively “test cell cultures”) were maintained in buffered RPMI 1640 supplemented with fetal calf serum, antibiotics and other appropriate growth factors such as glutamine. Test cells (1,500-2,000 cells/well) were seeded in a 96-well micro culture plate with a total volume of 100 μL/well. After overnight incubation in a humidified incubator at 37° C. with 5% CO2 and 95% air, elsamitrucin solutions were diluted to various concentrations with RPMI 1640, were added to each well in a 100 μL volume. The elsamitrucin base and the elsamitrucin tosylate solutions (elsamitrucin solutions) were prepared and stored in a −20° C. freezer. The solutions were thawed not more than 10 times for the entire experiment.
(§3) Cell culture plates seeded with test cells and various concentrations of elsamitrucin solutions were placed in a humidified incubator at 37° C., with CO2 and 95% air for 5-10 days. […]

[2] = test system: B16F10 murine melanoma cells; assay: MTT cell growth inhibition, B16F10; type: cell-based; settings: 5-10 days incubation
Procedure: as §1, §2, §3

[3] = test system: HCT 116 human colon carcinoma; assay: MTT cell growth inhibition, HCT 116; type: cell-based; settings: 5-10 days incubation
Procedure: as §1, §2, §3

[4] = test system: HT29 human colon carcinoma; assay: MTT cell growth inhibition, HT29; type: cell-based; settings: 5-10 days incubation
Procedure: as §1, §2, §3

[5] = test system: MCF7; settings: ER+ MCF7; cited from earlier work
[6] = test system: MDA-MB-231; settings: ER− MDA-MB-231; cited from earlier work
[7] = test system: MCF7DX; settings: MCF7DX subline; cited from earlier work
[8] = test system: clinical breast cancer specimens from untreated patients; settings: cited from earlier work
[9] = test system: patients with refractory/relapsed non-Hodgkin's lymphoma; settings: cited from earlier work

benzo(h)(1)benzopyrano(5,4,3-cde)(1)ebnzopyran-5,12-dione,10((2-O-(2-amino-2,6-dideoxy-3-O-methyl-alpha-D-galactopyranosyl)-6-deoxy-3-C-methyl-beta-D-galactopyranosyl)oxy)-6-hydroxy-1-methyl [Elsamitrucin]
IC50 [1]: 42 nM
IC50 [2]: 24 nM
IC50 [3]: 74 nM
IC50 [4]: 95 nM
IC50 antiproliferative effect [5]: 0.25 micrograms/ml
IC50 antiproliferative effect [6]: 0.21 micrograms/ml
cross-resistance to doxorubicin (DX) [7]: cross-resistant to DX
minimal inhibiting concentration ([8]; ER+ tumors): 0.1 micrograms/ml
minimal inhibiting concentration ([8]; ER− tumors): 3.5 micrograms/ml
elsamitrucin-associated toxicity [9]: relatively mild
myelosuppression [9]: did not include myelosuppression

Reference: patent publication US20070293445A1, “Stable Elsamitrucin Salts Suitable for Pharmaceutical Formulations” (SPECTRUM PHARMACEUTICALS, INC., priority 2006, published 2007)
